For one assay, the target named is T1, CYP2D6 (Homo sapiens, UniProt P10635).
T1 construct: Human liver microsomes (Corning Gentest); tissue Corning Gentest; host or cells: human liver microsomes
Description: Inhibition of human liver microsome CYP2D6 (dextromethorphan substrate). The assay is classed as in vitro ADME. As to conditions: human liver microsomes, 30 minutes, read-out: IC50 for the metabolic site on CYP2D6. As to the method:
The enzymatic activity of the compound of the present application against human liver microsome CYP2D6 was determined by the following experimental method:
CYP probe substrate (20 μM Dextromethorphan, SIGMA Q0750) and positive control inhibitor (Quinidine, SIGMA D9684).
100 mM PBS buffer was configured, and 2.5 mg/mL microsome solution and 5 mM NADPH solution were prepared with this buffer, and the 5× concentration compound working solution was diluted with PBS (150, 50, 15, 5, 1.5, 0.15, 0.015, 0 μM). The 5× concentration of Quinidine working solution (150, 50, 15, 5, 1.5, 0.15, 0.015, 0 μM) was diluted with PBS. Dextromethorphan working solution was diluted to a concentration of 20 μM with PBS.
20 μL each of 2.5 mg/mL microsome solution, 20 μM Dextromethorphan working solution, MgCl2 solution and compound working solution (150, 50, 15, 5, 1.5, 0.15, 0.015, 0 μM, each concentration was setted differently reaction system) were taken and mixed evenly. The compound was replaced with the same concentration of Quinidine at the positive control group. At the same time, 5 mM NADPH solution was pre-incubated for 5 minutes at 37° C. After 5 minutes, 20 μL NADPH were added into the wells, and the reaction was started and incubated for 30 minutes. All samples were incubated for two samples. […]
(Liver microsomes are a subcellular fraction often used to study metabolism.)

The target of another assay is T2, CYP3A4 (Homo sapiens, UniProt P08684).
T2 construct: Human liver microsomes (Corning Gentest); tissue Corning Gentest; host or cells: human liver microsomes
In words: Inhibition of the midazolam metabolic site on human liver microsome CYP3A4. Format: in vitro ADME. As to conditions: human liver microsomes, midazolam substrate, 30 minutes. As to the method: The enzymatic activity of the compound of the present application against the Midazolam metabolite site on human liver microsome CYP3A4 was determined by the following experimental method:
CYP probe substrate (15 μM Midazolam, SIGMA UC429) and positive control inhibitor (Ketoconazole, SIGMA K1003).
100 mM PBS buffer was configured, and 2.5 mg/mL microsome solution and 5 mM NADPH solution were prepared with this buffer, and the 5× concentration compound working solution was diluted with PBS (150, 50, 15, 5, 1.5, 0.15, 0.015, 0 μM). The 5× concentration of Ketoconazole working solution (150, 50, 15, 5, 1.5, 0.15, 0.015, 0 μM) was diluted with PBS. Midazolam working solution was diluted to a concentration of 15 μM with PBS.
20 μL each of 2.5 mg/mL microsome solution, 15 μM Midazolam working solution, MgCl2 solution and compound working solution (150, 50, 15, 5, 1.5, 0.15, 0.015, 0 μM, each concentration was setted differently reaction system) were taken and mixed evenly. The compound was replaced with the same concentration of Ketoconazole at the positive control group. At the same time, 5 mM NADPH solution was pre-incubated for 5 minutes at 37° C. After 5 minutes, 20 μL NADPH were added into the wells, and the reaction was started and incubated for 30 minutes. All samples were incubated for two samples. […]

Each structure is given as a SMILES string. Bounds are passed on as bounds.

T1 sequence (P10635 whole entry): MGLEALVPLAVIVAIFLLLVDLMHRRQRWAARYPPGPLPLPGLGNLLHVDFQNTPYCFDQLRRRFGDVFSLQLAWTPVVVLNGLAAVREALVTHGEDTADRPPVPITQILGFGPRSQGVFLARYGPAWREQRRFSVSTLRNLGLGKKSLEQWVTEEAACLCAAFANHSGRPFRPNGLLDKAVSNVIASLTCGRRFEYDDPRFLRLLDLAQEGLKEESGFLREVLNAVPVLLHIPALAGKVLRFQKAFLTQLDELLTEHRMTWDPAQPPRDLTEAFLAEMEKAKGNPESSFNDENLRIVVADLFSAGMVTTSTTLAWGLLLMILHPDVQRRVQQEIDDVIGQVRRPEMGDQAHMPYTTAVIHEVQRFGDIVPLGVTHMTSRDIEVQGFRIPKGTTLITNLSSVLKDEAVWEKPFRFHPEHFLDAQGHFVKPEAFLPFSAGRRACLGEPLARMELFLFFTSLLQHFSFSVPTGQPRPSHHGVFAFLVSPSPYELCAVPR
T2 sequence (P08684 whole entry): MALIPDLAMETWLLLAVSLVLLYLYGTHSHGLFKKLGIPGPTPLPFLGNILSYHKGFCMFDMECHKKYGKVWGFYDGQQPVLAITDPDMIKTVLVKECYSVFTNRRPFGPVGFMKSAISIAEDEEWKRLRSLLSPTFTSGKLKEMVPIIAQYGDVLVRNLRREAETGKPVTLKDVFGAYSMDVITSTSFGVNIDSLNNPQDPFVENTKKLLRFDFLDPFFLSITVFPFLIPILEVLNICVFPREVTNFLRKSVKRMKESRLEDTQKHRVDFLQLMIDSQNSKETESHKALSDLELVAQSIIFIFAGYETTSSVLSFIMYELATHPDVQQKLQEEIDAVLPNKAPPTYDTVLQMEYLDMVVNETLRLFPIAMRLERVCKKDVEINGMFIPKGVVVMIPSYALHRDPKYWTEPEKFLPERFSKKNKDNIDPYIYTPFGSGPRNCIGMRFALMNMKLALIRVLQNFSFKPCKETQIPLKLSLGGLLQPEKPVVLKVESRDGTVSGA

What is called IC50 is the concentration that gives 50% inhibition. For `CCCCOc1nc(N)c2[nH]nc(Cc3ccc(CN4CCCC4)cc3)c2n1` [Embodiment 1, 5-Butoxy-3-(4-(pyrrolidin-1-ylmethyl)benzyl)-1H-pyrazolo[4,3-d]pyrimidin-7-amine], the IC50 at CYP2D6 was > 30 µM; against CYP3A4, 16.7 µM.
Regarding `CCCCOc1nc(N)c2[nH]cc(Cc3ccc(CN4CCCC4)cc3)c2n1` [Embodiment 21 of WO2016023511], the figures for the IC50 on CYP2D6 and on CYP3A4 were 5.3 µM and 1.02 µM, respectively.

The values above are taken from patent publication US11111249B2, “Heteroaryl-pyrazole derivative, and preparation method therefor and medical application thereof” (Jiangsu Hengrui Medicine Co., Ltd., priority 2017, dated 2021).
